Source: patent US20240376094A2, “SELECTIVE BCL-XL PROTAC COMPOUNDS AND METHODS OF USE” (Les Laboratoires Servier, priority 2021, published 2024)

Assays:
Bcl-xL = target: T1, Bcl-xL (Homo sapiens, UniProt Q07817); assay: HCT116 Bcl-xL degradation, capillary-based immunoassay (WES); format: cell-based; conditions: HCT116, 24 h, 9-point serial dilution
T1 construct: Measured levels of Bcl-xL protein of HCT116 cells treated with the tested compounds; host or cells: HCT116
Experimental: HCT116 cells were purchased from ATCC and cultivated in RPMI 1640 supplemented with 10% heat inactivated fetal bovine serum, penicillin (100 IU/mi), streptomycin (100 μg/ml) and L-glutamine (2 mM). Cells were cultured at 37° C. in a humidified atmosphere containing 5% CO2. Cells were seeded in 96 microwell plates, 24 h later cells were treated with compounds (2-point 10/100 nM and/or 9-point serial dilution to determine DC50; quadruplicates) during 24 h and harvested in lysis buffer containing 10 mM Hepes (pH 7.5), 150 mM KCl, 5 mM MgCl2, 1 mM EDTA, 0.4% TritonX100, protease and phosphatase inhibitors cocktails (Calbiochem).
Protein concentration in the supernatants was determined using the Pierce BCA protein assay kit (Thermo Fisher Scientific). Lysates (1.5 μg/μL) were analyzed using an automated capillary electrophoresis WES system with 2-40 kDa Wes Separation Module (25 capillary cartridges, Proteinsimple), in accordance with the manufacturer's protocols. Antibodies against the following proteins were used: Bcl-xL (#2764, Cell Signaling Technology, 1:50) and cofilin (#5175, Cell Signaling Technology, 1:1000). Signals were detected with an HRP-conjugated secondary anti-rabbit antibody (#042-206, Proteinsimple) and were quantified using Compass software (version 4.0, Proteinsimple).
Bcl-xL level was calculated by normalizing Bcl-xL values to cofilin and expressed as a percentage of the normalized value of the untreated cells. DC50 were calculated using standard four-parametric curve fitting. DC50 is defined as the compound concentration at which Bcl-xL is reduced to 50% of that measured for the control. Measured levels of Bcl-xL protein of HCT116 cells treated with the tested compounds at 2-point 10 nM/100 nM and/or 9-point for DC50 determination are shown in Table 15.

MOLT-4 cells = assay: MOLT-4 cell viability, CTG assay; format: cell-based; conditions: Homo sapiens, MOLT-4, 48 h
Excerpt: The MTT colorimetric assay is based on the mitochondrial reduction of tetrazolium salt by living cells. The viable cell number is proportional to the production of formazan salts, which can be read spectrophotometrically at 540 nm. The CTG luminescent assay (CellTiter GLO, Promega) is based on a reagent which lyses cells and measures total adenosine triphosphate (ATP) content. The viable cell number is proportional to the production of ATP.
MOLT-4 cells were purchased from ATCC and cultivated in RPMI 1640 supplemented with 10% heat inactivated fetal bovine serum, penicillin (100 IU/mi), streptomycin (100 μg/ml) and L-glutamine (2 mM). Cells were cultured at 37° C. in a humidified atmosphere containing 5% […].
For CTG assay, cells were seeded in 384 microwell plates (40 μL per well) and exposed to the compounds for 48 h (11-point serial dilution with 5-fold factor, triplicates). At the end of incubation time, 40 μL of CTG solution were added per well. Wells were mixed thoroughly, and plates were incubated at room temperature for 10 minutes to stabilize luminescent signals prior to reading using a luminescence reader (PHERAStar FSX Reader, BMG Labtech).
IC50, were calculated using standard four-parametric curve fitting. IC50 is defined as the compound concentration at which the MTT or CTG signal is reduced to 50% of that measured for the control. Results shown in Table 14 represent the mean of at least 2 independent experiments.

T1 sequence (Q07817 whole entry): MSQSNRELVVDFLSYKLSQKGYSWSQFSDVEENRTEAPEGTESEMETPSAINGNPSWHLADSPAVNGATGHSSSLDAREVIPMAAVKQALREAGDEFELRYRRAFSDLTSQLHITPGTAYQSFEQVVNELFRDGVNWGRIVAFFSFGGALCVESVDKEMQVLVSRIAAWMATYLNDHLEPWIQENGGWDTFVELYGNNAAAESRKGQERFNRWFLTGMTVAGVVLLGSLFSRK

| Structure (SMILES) | DC50 (Bcl-xL) | IC50 (MOLT-4 cells) |
| --- | --- | --- |
| Cc1ncsc1-c1ccc(CNC(=O)[C@@H]2C[C@@H](O)CN2C(=O)[C@@H](NC(=O)C2(F)CC2)C(C)(C)C)c(OCCCCCCCCCCCCCCCN(C)CCOC23CC4(C)CC(C)(CC(Cn5ncc(-c6ccc(N7CCCc8c7nnc(Nc7nc9ccccc9s7)c8C)nc6C(=O)O)c5C)(C4)C2)C3)c1 [Example 83, 6-[3-(1,3-benzothiazol-2-ylamino)-4-methyl-6,7-dihydro-5H-pyrido[2,3-c]pyridazin-8-yl]-3-[1-[[3-[2-[15-[2-[[[(2S,4R)-1-[(2S)-2-[(1-fluorocyclopropanecarbonyl)amino]-3,3-dimethyl-butanoyl]-4-hydroxy-pyrrolidine-2-carbonyl]amino]methyl]-5-(4-methylthiazol-5-yl)phenoxy]pentadecyl-methyl-amino]ethoxy]-5,7-dimethyl-1-adamantyl]methyl]-5-methyl-pyrazol-4-yl]pyridine-2-carboxylic acid] | 4.49 nM | 4.72 nM |
| Cc1cc(N(CCCCN(C)C(=O)CCCCCCCCCCNc2cccc3c2C(=O)N(C2CCC(=O)NC2=O)C3=O)c2ccc(-c3cnn(CC45CC6(C)CC(C)(C4)CC(OCCN(C)C)(C6)C5)c3C)c(C(=O)O)n2)nnc1Nc1nc2ccccc2s1 (stereo not drawn) [Example 90, 6-[[6-(1,3-benzothiazol-2-ylamino)-5-methyl-pyridazin-3-yl]-[4-[11-[[2-(2,6-dioxo-3-piperidyl)-1,3-dioxo-isoindolin-4-yl]amino]undecanoyl-methyl-amino]butyl]amino]-3-[1-[[3-[2-(dimethylamino)ethoxy]-5,7-dimethyl-1-adamantyl]methyl]-5-methyl-pyrazol-4-yl]pyridine-2-carboxylic acid] | 1.33 nM | 16.8 nM |
| Cc1cc(N(CCCCN(C)C(=O)CCCCCCCCNc2cccc3c2C(=O)N(C2CCC(=O)NC2=O)C3=O)c2ccc(-c3cnn(CC45CC6(C)CC(C)(C4)CC(OCCN(C)C)(C6)C5)c3C)c(C(=O)O)n2)nnc1Nc1nc2ccccc2s1 (stereo not drawn) [Example 91, 6-[[6-(1,3-benzothiazol-2-ylamino)-5-methyl-pyridazin-3-yl]-[4-[9-[[2-(2,6-dioxo-3-piperidyl)-1,3-dioxo-isoindolin-4-yl]amino]nonanoyl-methyl-amino]butyl]amino]-3-[1-[[3-[2-(dimethylamino)ethoxy]-5,7-dimethyl-1-adamantyl]methyl]-5-methyl-pyrazol-4-yl]pyridine-2-carboxylic acid] | 0.407 nM | 12.7 nM |
| Cc1cc(N(CCCCN(C)C(=O)CCCCCCCCCNc2cccc3c2C(=O)N(C2CCC(=O)NC2=O)C3=O)c2ccc(-c3cnn(CC45CC6(C)CC(C)(C4)CC(OCCN(C)C)(C6)C5)c3C)c(C(=O)O)n2)nnc1Nc1nc2ccccc2s1 (stereo not drawn) [Example 92, 6-[[6-(1,3-benzothiazol-2-ylamino)-5-methyl-pyridazin-3-yl]-[4-[10-[[2-(2,6-dioxo-3-piperidyl)-1,3-dioxo-isoindolin-4-yl]amino]decanoyl-methyl-amino]butyl]amino]-3-[1-[[3-[2-(dimethylamino)ethoxy]-5,7-dimethyl-1-adamantyl]methyl]-5-methyl-pyrazol-4-yl]pyridine-2-carboxylic acid] | 0.954 nM | 14.9 nM |

Next, values leading:

| DC50 (Bcl-xL) | IC50 (MOLT-4 cells) | Structure (SMILES) |
| --- | --- | --- |
| 0.951 nM | 19.6 nM | Cc1cc(N(CCCCN(C)C(=O)CCCCCCCCCCCNc2cccc3c2C(=O)N(C2CCC(=O)NC2=O)C3=O)c2ccc(-c3cnn(CC45CC6(C)CC(C)(C4)CC(OCCN(C)C)(C6)C5)c3C)c(C(=O)O)n2)nnc1Nc1nc2ccccc2s1 (stereo not drawn) [Example 93, 6-[[6-(1,3-benzothiazol-2-ylamino)-5-methyl-pyridazin-3-yl]-[4-[12-[[2-(2,6-dioxo-3-piperidyl)-1,3-dioxo-isoindolin-4-yl]amino]dodecanoyl-methyl-amino]butyl]amino]-3-[1-[[3-[2-(dimethylamino)ethoxy]-5,7-dimethyl-1-adamantyl]methyl]-5-methyl-pyrazol-4-yl]pyridine-2-carboxylic acid] |
| > 316 nM | 4.36 nM | CN[C@@H](C)C(=O)N[C@H](C(=O)N1CCC[C@H]1c1nc(C(=O)c2cccc(OCCCCCCCCCCCCN(C)CCOC34CC5(C)CC(C)(CC(Cn6ncc(-c7ccc(N8CCCc9c8nnc(Nc8nc%10ccccc%10s8)c9C)nc7C(=O)O)c6C)(C5)C3)C4)c2)cs1)C1CCCCC1 [Example 96, 6-[3-(1,3-benzothiazol-2-ylamino)-4-methyl-6,7-dihydro-5H-pyrido[2,3-c]pyridazin-8-yl]-3-[1-[[3-[2-[12-[3-[2-[(2S)-1-[(2S)-2-cyclohexyl-2-[[(2S)-2-(methylamino)propanoyl]amino]acetyl]pyrrolidin-2-yl]thiazole-4-carbonyl]phenoxy]dodecyl-methyl-amino]ethoxy]-5,7-dimethyl-1-adamantyl]methyl]-5-methyl-pyrazol-4-yl]pyridine-2-carboxylic acid] |
| 0.356 nM | 3.76 nM | CN[C@@H](C)C(=O)N[C@H](C(=O)N1CCC[C@H]1c1nc(C(=O)c2cccc(OCCCCCCCCN(C)CCOC34CC5(C)CC(C)(CC(Cn6ncc(-c7ccc(N8CCCc9c8nnc(Nc8nc%10ccccc%10s8)c9C)nc7C(=O)O)c6C)(C5)C3)C4)c2)cs1)C1CCCCC1 [Example 97, 6-[3-(1,3-benzothiazol-2-ylamino)-4-methyl-6,7-dihydro-5H-pyrido[2,3-c]pyridazin-8-yl]-3-[1-[[3-[2-[8-[3-[2-[(2S)-1-[(2S)-2-cyclohexyl-2-[[(2S)-2-(methylamino)propanoyl]amino]acetyl]pyrrolidin-2-yl]thiazole-4-carbonyl]phenoxy]octyl-methyl-amino]ethoxy]-5,7-dimethyl-1-adamantyl]methyl]-5-methyl-pyrazol-4-yl]pyridine-2-carboxylic acid] |
| 0.362 nM | 4.74 nM | CN[C@@H](C)C(=O)N[C@H](C(=O)N1CCC[C@H]1c1nc(C(=O)c2cccc(OCCCCCCCCCCN(C)CCOC34CC5(C)CC(C)(CC(Cn6ncc(-c7ccc(N8CCCc9c8nnc(Nc8nc%10ccccc%10s8)c9C)nc7C(=O)O)c6C)(C5)C3)C4)c2)cs1)C1CCCCC1 [Example 98, 6-[3-(1,3-benzothiazol-2-ylamino)-4-methyl-6,7-dihydro-5H-pyrido[2,3-c]pyridazin-8-yl]-3-[1-[[3-[2-[10-[3-[2-[(2S)-1-[(2S)-2-cyclohexyl-2-[[(2S)-2-(methylamino)propanoyl]amino]acetyl]pyrrolidin-2-yl]thiazole-4-carbonyl]phenoxy]decyl-methyl-amino]ethoxy]-5,7-dimethyl-1-adamantyl]methyl]-5-methyl-pyrazol-4-yl]pyridine-2-carboxylic acid] |
| 0.612 nM | 7.68 nM | CN[C@@H](C)C(=O)N[C@H](C(=O)N1CCC[C@H]1c1nc(C(=O)c2cccc(OCCN(C)CCOC34CC5(C)CC(C)(CC(Cn6ncc(-c7ccc(N8CCCc9c8nnc(Nc8nc%10ccccc%10s8)c9C)nc7C(=O)O)c6C)(C5)C3)C4)c2)cs1)C1CCCCC1 [Example 101, 6-[3-(1,3-benzothiazol-2-ylamino)-4-methyl-6,7-dihydro-5H-pyrido[2,3-c]pyridazin-8-yl]-3-[1-[[3-[2-[2-[3-[2-[(2S)-1-[(2S)-2-cyclohexyl-2-[[(2S)-2-(methylamino)propanoyl]amino]acetyl]pyrrolidin-2-yl]thiazole-4-carbonyl]phenoxy]ethyl-methyl-amino]ethoxy]-5,7-dimethyl-1-adamantyl]methyl]-5-methyl-pyrazol-4-yl]pyridine-2-carboxylic acid] |
